In patent US20240299429A1, “PREVENTIVE AND THERAPEUTIC AGENT FOR URINARY TRACT INFECTION CONTAINING 1-DEOXYMANNOSE” (SUNUS CO., LTD., priority 2022, published 2024):
Where two headings read alike, the source gives them in different places.

Legend:
[1] = Urinary concentration after oral administration to human subjects (HPLC); type: in vivo; conditions: 1 g oral
Experimental: HPLC devices: PU2089 plus, AS2055 plus and RI2031 plus (series number) manufactured by JASCO Corporation; MODEL 556 manufactured by GL Sciences Inc. • Columns: MITSUBISHI MCI GEL CK08S; two columns coupled together • Oven temperature: 60° C. • Eluent: Water • Detector: Differential refractometer • Flow rate: 1 ml/minute • Injection volume: 100 μL
The determination of 1-deoxymannose was carried out using a calibration curve produced by using the 1-deoxymannose prepared as above. The determination of mannose was carried out using a calibration curve produced by using special grade mannose as a reagent.
(§1) 1 g of 1-deoxymannose was dissolved in water to prepare a 20% w/w solution as a sample for oral administration. Urine was collected from six human subjects before administration of the sample. The total amount of sample was administered orally to each of the subjects, and the total amount of urine was collected one, two, three, four, six and eight hours after the administration. The urine collected at each of the points in time was subjected to volume measurement, and then filtered through a membrane filter with a pore size of 0.2 μm, followed by measurement of urinary 1-deoxymannose concentration by HPLC analysis.
Mannose, instead of 1-deoxymannose, was orally administered, followed by collection of urine, in the same manner as in Example 1. […]

[2] = tested on: Escherichia coli (NBRC 3301); test: Utilization of sugars by Escherichia coli (turbidity in M9 minimal medium); type: cell-based; conditions: 1% sugar in M9 minimal medium, 37° C., compared with mannose and glucose
Experimental: In order to evaluate the utilization of 1-deoxymannose by Escherichia coli (NBRC 3301), the following experiment was conducted.
M9 minimal medium (obtained by adding MgSO4 and CaCl2 to Difco™ M9 Minimal Salt) containing 2 ml of 1% glucose was used. Escherichia coli (NBRC 3301) was subjected to shaking at 37° C. for 17 hours to prepare a culture solution. 10 μL of the culture solution was added to 2 ml of M9 minimal media containing 1%1-deoxymannose, 1% mannose, and 1% glucose, respectively, followed by shaking culture at 37° C. During culture, 100 μL of the culture solution was serially sampled and measured for its turbidity (600 nm) using a cell with an optical path length of 1 cm. The growth of Escherichia coli was evaluated based on increased turbidity. The results of the measurement are shown in FIG. 3, in which Example 2, Comparative Example 2, and Comparative Example 3 correspond to the culture solution containing 1-deoxymannose, the culture solution containing mannose, and the culture solution containing glucose, respectively.

[3] = Urine volume after oral administration; type: in vivo; conditions: 1 g oral, human, all points in time up to eight hours
Experimental: as §1
Mannose, instead of 1-deoxymannose, was orally administered, followed by collection of urine, in the same manner as in Example 1.
In FIG. 2, the vertical axis indicates the percentage of the urine volume after administration of 1-deoxymannose in Example 1 relative to the urine volume after administration of mannose in Comparative Example 1 taken as 100%, at the respective points in time.

[4] = Urinary recovery rate after oral administration; type: in vivo; conditions: urine; 1 g oral, human, up to eight hours after administration
Experimental: as §1
The urinary recovery rate of 1-deoxymannose was determined by dividing the amount of recovered 1-deoxymannose, which was obtained from the collected urine volume and the urinary 1-deoxymannose concentration, by the dose. The urinary recovery rate is expressed by the following formula:
[formula] • Vn: Urine volume [ml] n hour (s) after administration • Cn: Urinary 1-deoxymannose concentration [mg/ml] n hour (s) after administration • M: Dose of 1-deoxymannose (=1000 mg)

Fim H lectin = Fim H lectin (Escherichia coli, UniProt P08191); conditions: read-out: dissociation constant (KD) against Fim H lectin (converted), cited from earlier work
Sequence of Fim H lectin (P08191 22-300): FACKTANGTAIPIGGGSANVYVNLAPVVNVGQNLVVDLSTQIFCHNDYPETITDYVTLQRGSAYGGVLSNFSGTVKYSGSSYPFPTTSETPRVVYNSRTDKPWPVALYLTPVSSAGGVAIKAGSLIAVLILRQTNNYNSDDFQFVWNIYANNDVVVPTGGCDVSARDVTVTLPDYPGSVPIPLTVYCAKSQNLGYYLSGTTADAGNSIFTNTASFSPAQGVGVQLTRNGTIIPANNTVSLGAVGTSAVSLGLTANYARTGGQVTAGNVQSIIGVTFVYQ

Structure (SMILES): OC[C@H]1OC[C@@H](O)[C@@H](O)[C@@H]1O [1-deoxymannose, 1,5-anhydro-D-mannitol]
- highest urinary concentration ([1]; average of six subjects, two hours after administration): 2.12 mg/mL
- detection in urine ([1]; six subjects, urine collected one to eight hours after administration, detection limit 0.1 mg/ml): detected
- turbidity (600 nm) of Escherichia coli culture, growth [2]: did not have increased turbidity
- urine volume versus mannose administration group [3]: larger volume of urine
- dose excreted [4]: 43.3 ± 9.03%
- Kd (Fim H lectin; expressed as mass concentration): 1.13 µM
- Kd (Fim H lectin): 1.13 µM
